Where two headings read alike, the source gives them in different places.

We go through ten compounds from patent publication US3931407A, “Method of treatment with and compositions containing condensed pyrroles bearing an N-phenyl substituent” (American Hoechst Corporation, priority 1974, dated 1976).

In series [1] the test system is edema induced by carrageenin in rat paws. Briefly: Carrageenin paw edema in rats. The series is classed as in vivo. To be noted: read-out: Carrageenin paw edema-rats ED50. (Carrageenan injected into the paw causes an acute inflammation.)
In series [2] the test system is yeast-induced pyrexia in rats. The series is described as follows: Antipyretic assay, yeast-induced pyrexia in rats. The series is classed as in vivo, female Charles River or Wistar rats. The conditions noted are these: Rattus norvegicus; dose producing ≥ 1° reduction in rectal temperature in 50 percent of fevered rats; oral; 2 hours past drug. How it is done:
A common property of useful anti-inflammatory agents is their ability to lower elevated body temperatures. […] Groups of ten female Charles River or Wistar rats (120-150 gm) are injected with a 20% water suspension of "Brewers Yeast" subcutaneously into the nape of the neck (10 ml/kg). The animals are starved (water ad lib.) and 18 hours later rectal temperatures are monitored (Tele-Thermometer, Yellow Springs Instrument Co., Inc., Yellow Springs, Ohio). Animals with a temperature ≥ 37.2°C. are considered fevered. Drugs are administered orally (10 ml/kg) using distilled water and, if insoluble, one drop of a dispersing agent, e.g. "Tween 80," per 10 ml. Temperatures are recorded 2 hours past drug. Significant activity is a reduction in rectal temperature ≥ 1° from the mean control temperature. The activity of the compounds tested is expressed as ED50, the dose (mg/kg) of a compound producing a reduction of ≥ 1° in rectal temperature of fevered rats from the mean fevered control temperature in 50 percent of the animals.

Series [3] deals with writhing induced in mice by 2-phenyl-1,4-benzoquinone. The series is described as follows: Phenylquinone (2-phenyl-1,4-benzoquinone) writhing in mice, analgesic activity. The series is classed as in vivo. The conditions noted are these: Mus musculus, read-out: Phenylquinone writhing-mice ED50. An excerpt: Exp. Biol. Med., 95, 729 (1957)]. The activity of several representative compounds of the present invention and of aspirin and phenylbutazone is expressed as ED50, the dose (mg/kg) of compound producing a 50% reduction in the number of writhes as compared to non-treated 2-phenyl-1,4-benzoquinone dosed controls.
(In writhing tests, fewer writhes than in controls are read as antinociception.)

For series [4], the system named is adjuvant-induced arthritis in rats. The series is described as follows: Adjuvant-induced arthritis in rats. The series is classed as in vivo. The conditions noted are these: Rattus norvegicus, 504 h; for inhibition in vivo at 100 mg/kg: 100 mg/kg/day; for inhibition in vivo at 100 mg/kg / inhibition in vivo at 50 mg/kg / inhibition in vivo at 10 mg/kg / inhibition in vivo at 25 mg/kg: rats, day 21; for inhibition in vivo at 50 mg/kg: 50 mg/kg/day; for inhibition in vivo at 10 mg/kg: 10 mg/kg/day; for inhibition in vivo at 25 mg/kg: 25 mg/kg/day.

Series [5] in a line: in vivo. The conditions noted are these: rat, po. How it is done:
A common but undesirable side effect of anti-inflammatory agents is the production of gastric irritation in mammals. […] Groups of male or female rats (Wistar, Long Evans or Charles River), 150-180 gm, are utilized for this assay using 10 animals per dose group. The animals are starved for 48 hours (H2 O ad lib) prior to administration of drug orally at 10 ml/kg. Drugs are prepared using distilled water solutions or, if insoluble, 1 drop of a dispersing agent, e.g. "Tween 80"/10 ml, is used with homogenization. The control group receives the vehicle only (10 ml/kg). […] Stomachs are removed and examined for gastric irritation, which is defined as ulceration and/or hemorrhage of gastric mucosa. The presence of a single ulcer or hemorrhage spot is taken as positive and stomachs must be "clean" to be negative. A dose response is run at the peak time using at least four dose levels of test drug. In the table, gastric irritability is expressed as ID50, the dose (mg/kg) of compound producing irritation in 50 percent of the animals after seven hours.

The mark [6] stands for this setting: dose producing 50% reduction in edema vs non-treated controls, rats.
Setting [7] is: dose producing 50% reduction in number of writhes vs non-treated controls, mice.
Where [8] appears, read: read-out: % Inhibition of Edema on Day 21, Adjuvant Injected Paw.
Setting [9] is: read-out: % Inhibition of Edema on Day 21, Non-Injected Paw.

A word on the ED50: it is the dose at which the effect has come halfway, by size or by number of responders. Regarding `O=C(O)c1cc(-n2c(-c3ccccc3)cc3c2CCCCC3)ccc1O` [1-(3-Carboxy-4-hydroxyphenyl)-1,4,5,6,7,8-hexahydro-2-phenylcyclohepta[b]pyrrole], the ED50 in series [1] (setting [6]) was 125 mg/kg; in series [2], 100 mg/kg; in series [3] (setting [7]), 10 mg/kg. Moreover, the values for the inhibition in vivo at 100 mg/kg in series [4] (setting [8]) and in series [4] (setting [9]) were 75% and 90%, respectively. This compound yielded a TD50 at 7 h in series [5] greater than 200 mg/kg.
On to `O=C(O)c1cc(-n2c(-c3ccc(F)cc3)cc3c2CCCC3)ccc1O` [1-(3-Carboxy-4-hydroxyphenyl)-2-(4-fluorophenyl)-4,5,6,7-tetrahydroindole], for which the ED50 in series [1] (setting [6]) amounted to 88 mg/kg. Further, the inhibition in vivo at 100 mg/kg in series [4] (setting [8]) is 56%; in series [4] (setting [9]), 64%.
Consider `O=C(O)c1cc(-n2c(-c3ccccc3)cc3c2CCC3)ccc1O` [1-(3-Carboxy-4-hydroxyphenyl)-2-phenyl-1,4,5,6-tetrahydrocyclopenta[b]pyrrole], for which the ED50 in series [1] (setting [6]) was 110 mg/kg; in series [2] it was less than 50 mg/kg; in series [3] (setting [7]), 10 mg/kg. For the same compound, the results for the inhibition in vivo at 100 mg/kg in series [4] (setting [8]) and in series [4] (setting [9]) were 57% and 75%, respectively. The compound further returned a TD50 at 7 h in series [5] of 125 mg/kg.
For the compound `O=C(O)c1cc(-n2c(-c3ccccc3)cc3c2CCCC3)ccc1O` [1-(3-Carboxy-4-hydroxyphenyl)-2-phenyl-4,5,6,7-tetrahydroindole], the values for the ED50 in series [1] (setting [6]), in series [2] and in series [3] (setting [7]) were 87 mg/kg, 41 mg/kg and 17 mg/kg, respectively. For the same compound, the values for the inhibition in vivo at 50 mg/kg in series [4] (setting [8]) and in series [4] (setting [9]) were 38% and 72%, respectively. Further, the inhibition in vivo at 100 mg/kg in series [4] (setting [8]) came to 65%; in series [4] (setting [9]), 80%. Besides, in series [5], the TD50 at 7 h amounted to 130 mg/kg.
Turning to `O=C(O)c1cc(-n2c(-c3ccccc3)cc3c2CCCC3)ccc1S` [1-(3-Carboxy-4-mercaptophenyl)-2-phenyl-4,5,6,7-tetrahydroindole], in series [1] (setting [6]), the ED50 is 140 mg/kg. In series [4] (setting [8]), the inhibition in vivo at 10 mg/kg was determined as 23%, the inhibition in vivo at 25 mg/kg stood at 43% and the inhibition in vivo at 50 mg/kg was determined as 67%. Besides, in series [4] (setting [9]), the inhibition in vivo at 10 mg/kg came to 23%, the inhibition in vivo at 25 mg/kg came out at 57% and the inhibition in vivo at 50 mg/kg turned out to be 80%.
As for `O=C(O)c1cc(-n2c(-c3ccccc3)cc3c4ccccc4ccc32)ccc1O` [3-(3-Carboxy-4-hydroxyphenyl)-2-phenylbenz[e]indole], the results for the ED50 in series [1] (setting [6]), in series [2] and in series [3] (setting [7]) were 90 mg/kg, greater than 100 mg/kg and 16.5 mg/kg, respectively. The inhibition in vivo at 25 mg/kg in series [4] (setting [8]) was found to be 45%; in series [4] (setting [9]), 50%. The inhibition in vivo at 50 mg/kg in series [4] (setting [8]) and in series [4] (setting [9]) was 70% each time. In addition, in series [5], the TD50 at 7 h is greater than 200 mg/kg.
With `O=C(O)c1cc(-n2c(-c3ccccc3)cc3c2CCc2ccccc2-3)ccc1O` [3-(3-Carboxy-4-hydroxyphenyl)-4,5-dihydro-2-phenylbenz[e]indole], the ED50 turned out to be 63 mg/kg in series [1] (setting [6]), 69 mg/kg in series [2] and 10 mg/kg in series [3] (setting [7]). Moreover, the values for the inhibition in vivo at 10 mg/kg in series [4] (setting [8]) and in series [4] (setting [9]) were 27% and 29%, respectively. The inhibition in vivo at 25 mg/kg in series [4] (setting [8]) worked out at 49%; in series [4] (setting [9]), 72%. Moreover, the inhibition in vivo at 50 mg/kg in series [4] (setting [8]) came to 69%; in series [4] (setting [9]), 81%. Besides, in series [5], the TD50 at 7 h was in the range of 300 to 350 mg/kg.
On to `CC(=O)Oc1ccc(-n2c(-c3ccccc3)cc3c2CCc2ccccc2-3)cc1C(=O)O` [3-(4-Acetoxy-3-carboxyphenyl)-4,5-dihydro-2-phenylbenz[e]indole], for which the figures for the ED50 in series [1] (setting [6]) and in series [3] (setting [7]) were 70 mg/kg and 16.5 mg/kg, respectively. Further, the inhibition in vivo at 50 mg/kg is 56% in series [4] (setting [8]) and 68% in series [4] (setting [9]). Moreover, the inhibition in vivo at 100 mg/kg was 82% in series [4] (setting [8]) and 93% in series [4] (setting [9]). In series [5], this compound gave a TD50 at 7 h greater than 300 mg/kg.
As for `CC(=O)Oc1ccccc1C(=O)O` [Aspirin, reference compound], the ED50 was 130 to 140 mg/kg in series [1], 35 mg/kg in series [2] and 53 mg/kg in series [3]. Further, the inhibition in vivo at 200 mg/kg in series [4] (setting [8]) is 37%; in series [4] (setting [9]), 47%. In addition, the TD50 at 7 h in series [5] (in vivo) was 42 mg/kg.
For the compound `CCCCC1C(=O)N(c2ccccc2)N(c2ccccc2)C1=O` [Phenylbutazone, reference compound], the ED50 was 83 mg/kg in series [1] (setting [6]), less than 50 mg/kg in series [2] and 89 mg/kg in series [3] (setting [7]). For the same compound, the inhibition in vivo at 50 mg/kg was determined as 60% in series [4] (setting [8]) and 71% in series [4] (setting [9]). The compound also returned a TD50 at 7 h in series [5] of 75 mg/kg.
